From patent publication US20230147040A1, “METHOD FOR PROGNOSIS PREDICTION OF SKIN CANCER AND USE THEREOF” (PUBLIC UNIVERSITY CORPORATION NAGOYA CITY UNIVERSITY, priority 2020, published 2023)

What was measured:
Format in all cases: in vivo
Merkel cell carcinoma = assay: Clinical course of Merkel cell carcinoma cases under treatment
cutaneous angiosarcoma = assay: Clinical course of cutaneous angiosarcoma cases under treatment; conditions: primary lesion in the head
G6PD = G6PD activity in patient serum (G6PD assay kit); conditions: Case 4, avelumab and IMRT in combination
Procedure: For 50 patient serum specimens of 19 cases, the G6PD activity was measured using a G6PD assay kit (Abeam, ab102529). The average activity value of the 50 specimens was 11.45 mU/ml.
The course of Merkel cell carcinoma was confirmed for the cases (Case 1 to 3) of 3 specimens having a particularly high G6PD activity (19 mU/ml or more) among the 50 specimens. In addition, the course of Merkel cell carcinoma was confirmed for a case (Case 4) having a decreased G6PD activity. In FIGS. 6 to 8 shown below, the vertical axis represents the G6PD activity (mU/ml), and the horizontal axis represents the period.

[1] = Case B, wPTX, then changed to eribulin

For `COc1cc([C@@H]2c3cc4c(cc3[C@@H](O[C@@H]3O[C@@H]5CO[C@@H](C)O[C@H]5[C@H](O)[C@H]3O)[C@H]3COC(=O)[C@H]23)OCO4)cc(OC)c1O` [VP-16], the therapeutic effect (Merkel cell carcinoma; Case 1, stage IV, systemic lymph node metastasis after surgical resection and radiation therapy, combination therapy of CBDGB and VP-16) was “no therapeutic effect was observed”.
For `C=C1C[C@@H]2CC[C@@]34C[C@H]5O[C@H]6[C@@H](O3)[C@H]3O[C@H](CC[C@@H]3O[C@H]6[C@H]5O4)CC(=O)C[C@@H]3[C@@H](OC)[C@@H](C[C@H](O)CN)O[C@H]3C[C@H]3O[C@@H](CC[C@@H]1O2)C[C@@H](C)C3=C` [eribulin], the clinical course (cutaneous angiosarcoma; [1]) was “pneumothorax (PD) was developed”.
For `CC(=O)O[C@@]12CO[C@@H]1C[C@H](O)[C@@]1(C)C(=O)[C@H](O)C3=C(C)[C@@H](OC(=O)[C@H](O)[C@@H](NC(=O)OC(C)(C)C)c4ccccc4)C[C@@](O)([C@@H](OC(=O)c4ccccc4)[C@H]21)C3(C)C` [wDTX], the clinical course (cutaneous angiosarcoma; Case C, upon administration of wDTX) was “pneumothorax was developed”.
For `CC(=O)O[C@H]1C(=O)[C@@]2(C)[C@H]([C@H](OC(=O)c3ccccc3)[C@]3(O)C[C@H](OC(=O)[C@H](O)[C@@H](NC(=O)c4ccccc4)c4ccccc4)C(C)=C1C3(C)C)[C@]1(OC(C)=O)CO[C@@H]1C[C@@H]2O` [wPTX], the clinical course (cutaneous angiosarcoma; Case A, wPTX therapy and radiation therapy) was “the performance status (PS) deteriorated” and the clinical course (cutaneous angiosarcoma; [1]) was “parotid lymph node metastasis was observed”.
In the case of avelumab, the clinical outcome (Merkel cell carcinoma; Case 1, stage IV, trial of avelumab after failed combination chemotherapy) is reported as “death of current disease was caused after several months”, the “PET/CT accumulation in right submandibular lymph node” value (Merkel cell carcinoma; Case 4, stage III, avelumab alone, after 3 months) is reported as “enhancement of the accumulation was observed” and the clinical outcome (Merkel cell carcinoma; Case 4, stage III, avelumab in combination with IMRT) is reported as “complete remission (CR)”. For the same molecule, the G6PD activity (G6PD) was “significantly reduced”.
